Data from PubChem BioAssay AID248 (DTP/NCI, 2004).
“And” between values parts separate entries of the source, which are not always exact repeats. Equal values may be shown once. Inconclusive results and toxic doses are left out. Rule as the data show it: active = T/C of 150% or more; inactive = T/C below 125%.

Test system: L1210 leukemia ip in BDF1 mice, survival T/C
Experiment: NCI In Vivo Anticancer Drug Screen. Data for tumor model L1210 Leukemia (intraperitoneal) in B6D2F1 (BDF1) mice
Conditions: endpoint: mean survival time, higher = longer survival
Procedure, shortened: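 Transplanted-tumor mice were given test agent; controls received vehicle only. Survival readings from the two groups were divided (treated over control).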

[1] = dose: 50.0 mg/kg/injection, schedule: Q01DX001 (ip), vehicle: saline
[2] = dose: 100.0 mg/kg/injection, schedule: Q01DX001 (ip), vehicle: saline
[3] = dose: 200.0 mg/kg/injection, schedule: Q01DX001 (ip), vehicle: saline
[4] = dose: 400.0 mg/kg/injection, schedule: Q01DX001 (ip), vehicle: saline
[5] = dose: 100.0 mg/kg/injection, schedule: Q04DX002 (ip), vehicle: saline with Tween-80
[6] = dose: 200.0 mg/kg/injection, schedule: Q04DX002 (ip), vehicle: saline with Tween-80
[7] = dose: 400.0 mg/kg/injection, schedule: Q04DX002 (ip), vehicle: saline with Tween-80
[8] = dose: 100.0 mg/kg/injection, schedule: Q01DX009 (ip), vehicle: saline with Tween-80
[9] = dose: 200.0 mg/kg/injection, schedule: Q01DX009 (ip), vehicle: saline with Tween-80
[10] = dose: 400.0 mg/kg/injection, schedule: Q01DX009 (ip), vehicle: saline with Tween-80
[11] = dose: 25.0 mg/kg/injection, schedule: Q01DX009 (ip), vehicle: saline
[12] = dose: 50.0 mg/kg/injection, schedule: Q01DX009 (ip), vehicle: saline
[13] = dose: 100.0 mg/kg/injection, schedule: Q01DX009 (ip), vehicle: saline
[14] = dose: 100.0 mg/kg/injection, schedule: Q01DX009 (ip), vehicle: Klucel (hydroxypropylcellulose) (HPC)
[15] = dose: 200.0 mg/kg/injection, schedule: Q01DX009 (ip), vehicle: Klucel (hydroxypropylcellulose) (HPC)
[16] = dose: 100.0 mg/kg/injection, schedule: Q04DX003 (ip), vehicle: Klucel (hydroxypropylcellulose) (HPC)
[17] = dose: 400.0 mg/kg/injection, schedule: Q01DX009 (ip), vehicle: Klucel (hydroxypropylcellulose) (HPC)
[18] = dose: 100.0 mg/kg/injection, schedule: Q04DX003 (ip), vehicle: saline with Tween-80
[19] = dose: 200.0 mg/kg/injection, schedule: Q04DX003 (ip), vehicle: saline with Tween-80
[20] = dose: 200.0 mg/kg/injection, schedule: Q04DX003 (ip), vehicle: Klucel (hydroxypropylcellulose) (HPC)
[21] = dose: 400.0 mg/kg/injection, schedule: Q04DX003 (ip), vehicle: Klucel (hydroxypropylcellulose) (HPC)
[22] = dose: 100.0 mg/kg/injection, schedule: Q04DX002 (ip), vehicle: Klucel (hydroxypropylcellulose) (HPC)
[23] = dose: 200.0 mg/kg/injection, schedule: Q04DX002 (ip), vehicle: Klucel (hydroxypropylcellulose) (HPC)

Measured: T/C

O=S(=O)(Cl)c1ccc(Oc2ccc(S(=O)(=O)Cl)cc2)cc1
inactive: [1] 105 % of control | [2] 94 % of control | [3] 105 % of control | [4] 90 % of control

ClCc1c2ccccc2cc2ccccc12
inactive: dose: 6.25 mg/kg/injection, schedule: Q04DX002 (ip), vehicle: saline with Tween-80 101 % of control | dose: 12.5 mg/kg/injection, schedule: Q04DX002 (ip), vehicle: saline with Tween-80 101 % of control

COc1ccc(COc2ccc([N+](=O)[O-])cc2)cc1
inactive: dose: 50.0 mg/kg/injection, schedule: Q04DX002 (ip), vehicle: saline with Tween-80 101 % of control | [5] 104 % of control | [6] 97 % of control

O=C(Nc1ccc(Cl)cc1)Nc1cccc2nsnc12
inactive: [5] 97 % of control | [6] 93 % of control | [7] 90 % of control

O=C(O)c1ccc2c(c1)C(Br)(Br)C2(Br)Br
inactive: [8] 98 % of control | [9] 101 % of control | [10] 103 % of control

O=S1(=O)CC(O)C1
inactive: [1] 91 % of control | [2] 100 % of control | [3] 94 % of control | [4] 105 % of control

CC(/C=C/C(O)=C1/C(=O)CNC1=O)=C\[C@@H](C)[C@H]1O[C@@]2(C)O[C@H](C(=O)[C@@H]3O[C@@]32C)[C@@H]1C
inactive: [11] 94 % of control | [12] 100 % of control | dose: 100.0 mg/kg/injection, schedule: Q01DX001 (ip), vehicle: acetone 89 % of control | [13] 93 % of control | dose: 100.0 mg/kg/injection, schedule: Q04DX003 (ip), vehicle: acetone 87 % of control | dose: 200.0 mg/kg/injection, schedule: Q01DX001 (ip), vehicle: acetone 89 % of control | dose: 400.0 mg/kg/injection, schedule: Q01DX001 (ip), vehicle: acetone 96 % of control

O=C1C=C2C(=CCOC2O)O1 (stereo unspecified)
inactive: dose: 0.25 mg/kg/injection, schedule: Q01DX009 (ip), vehicle: Klucel (hydroxypropylcellulose) (HPC) 97 % of control | dose: 0.5 mg/kg/injection, schedule: Q01DX009 (ip), vehicle: Klucel (hydroxypropylcellulose) (HPC) 103 % of control | dose: 1.0 mg/kg/injection, schedule: Q01DX009 (ip), vehicle: Klucel (hydroxypropylcellulose) (HPC) 109 % of control | dose: 2.0 mg/kg/injection, schedule: Q01DX009 (ip), vehicle: Klucel (hydroxypropylcellulose) (HPC) 104 % of control | dose: 4.0 mg/kg/injection, schedule: Q01DX009 (ip), vehicle: Klucel (hydroxypropylcellulose) (HPC) 101 % of control

CC1(C)CCC2(C(=O)OC3OC(CO)C(O)C(O)C3O)CCC3(CO)C(=CCC4C5(C)CC(O)C(O)C(C)(C(=O)OC6OC(CO)C(O)C(O)C6O)C5CCC43C)C2C1 (stereo unspecified)
inactive: dose: 75.0 mg/kg/injection, schedule: Q01DX001 (sc), vehicle: steriod suspending solution 101 % of control | dose: 300.0 mg/kg/injection, schedule: Q01DX001 (sc), vehicle: steriod suspending solution 107 % of control

COc1cc(C(N)=O)cc(OC)c1OC
inactive: dose: 100.0 mg/kg/injection, schedule: Q01DX001 (ip), vehicle: saline with Tween-80 96 % of control | dose: 200.0 mg/kg/injection, schedule: Q01DX001 (ip), vehicle: saline with Tween-80 98 % of control | dose: 400.0 mg/kg/injection, schedule: Q01DX001 (ip), vehicle: saline with Tween-80 98 % of control

CCCC(C)OP(=O)(OCC)OC(C)CC (stereo unspecified)
inactive: [14] 100 % of control | [15] 89 % of control

CCOC(=O)C(=O)C(C#N)C(=O)OCC (stereo unspecified)
inactive: dose: 12.5 mg/kg/injection, schedule: Q04DX003 (ip), vehicle: Klucel (hydroxypropylcellulose) (HPC) 100 % of control | [11] 98 % of control | dose: 25.0 mg/kg/injection, schedule: Q04DX003 (ip), vehicle: Klucel (hydroxypropylcellulose) (HPC) 100 % of control | [12] 98 % of control | dose: 50.0 mg/kg/injection, schedule: Q04DX003 (ip), vehicle: Klucel (hydroxypropylcellulose) (HPC) 91 % of control | [13] 95 % of control | [16] 97 % of control

Clc1cccc2nsnc12
inactive: [14] 102 % of control | [15] 100 % of control | [17] 102 % of control

CCCCCCC(C)NCC(C)O (stereo unspecified)
inactive: dose: 75.0 mg/kg/injection, schedule: Q01DX001 (ip), vehicle: acid diluted with saline 96 % of control

Cc1c(Cl)cccc1NC(=O)Nc1cccc(O)c1
inactive: [8] 104 % of control and 89 % of control | [5] 97 % of control and 100 % of control | [18] 101 % of control | [9] 95 % of control and 97 % of control | [6] 93 % of control and 89 % of control | [19] 100 % of control | [10] 93 % of control and 90 % of control | [7] 93 % of control and 94 % of control | dose: 400.0 mg/kg/injection, schedule: Q04DX003 (ip), vehicle: saline with Tween-80 97 % of control

OC1COC(OCc2ccccc2)C(O)C1O (stereo unspecified)
inactive: dose: 100.0 mg/kg/injection, schedule: Q01DX001 (ip), vehicle: Klucel (hydroxypropylcellulose) (HPC) 101 % of control | [18] 101 % of control | dose: 200.0 mg/kg/injection, schedule: Q01DX001 (ip), vehicle: Klucel (hydroxypropylcellulose) (HPC) 96 % of control | [19] 100 % of control | dose: 400.0 mg/kg/injection, schedule: Q01DX001 (ip), vehicle: Klucel (hydroxypropylcellulose) (HPC) 101 % of control

COC(=O)c1cc(=O)c2c(=O)[nH]c(=O)n(C)c2[nH]1
inactive: [16] 94 % of control | [20] 101 % of control | [21] 95 % of control

CCCC[N+](C)(CCCC)CC(O)c1cc(-c2ccc(Cl)cc2)nc2c(Cl)cc(Cl)cc12 (stereo unspecified)
inactive: dose: 12.5 mg/kg/injection, schedule: Q04DX003 (ip), vehicle: saline 102 % of control

CC1CCOP(=O)(Sc2ccccc2)O1 (stereo unspecified)
inactive: dose: 75.0 mg/kg/injection, schedule: Q04DX002 (ip), vehicle: Klucel (hydroxypropylcellulose) (HPC) 102 % of control | [22] 106 % of control | dose: 150.0 mg/kg/injection, schedule: Q04DX002 (ip), vehicle: Klucel (hydroxypropylcellulose) (HPC) 113 % of control | [23] 109 % of control

O=C(Cc1ccccc1)OCC#CC#CCOC(=O)Cc1ccccc1
inactive: [14] 103 % of control | [16] 92 % of control | [15] 98 % of control | [20] 91 % of control | [17] 97 % of control | [21] 92 % of control

Cc1ccccc1N1C(N)=NC(N)=NC1(C)C
inactive: dose: 6.25 mg/kg/injection, schedule: Q01DX009 (ip), vehicle: Klucel (hydroxypropylcellulose) (HPC) 89 % of control | dose: 12.5 mg/kg/injection, schedule: Q01DX009 (ip), vehicle: Klucel (hydroxypropylcellulose) (HPC) 91 % of control | dose: 25.0 mg/kg/injection, schedule: Q01DX009 (ip), vehicle: Klucel (hydroxypropylcellulose) (HPC) 100 % of control | dose: 50.0 mg/kg/injection, schedule: Q01DX009 (ip), vehicle: Klucel (hydroxypropylcellulose) (HPC) 96 % of control | dose: 75.0 mg/kg/injection, schedule: Q01DX001 (ip), vehicle: saline 103 % of control

O=[N+]([O-])c1sc2ccccc2c1Br
inactive: dose: 5.0 mg/kg/injection, schedule: Q04DX002 (ip), vehicle: Klucel (hydroxypropylcellulose) (HPC) 101 % of control | dose: 10.0 mg/kg/injection, schedule: Q04DX002 (ip), vehicle: Klucel (hydroxypropylcellulose) (HPC) 97 % of control | dose: 20.0 mg/kg/injection, schedule: Q04DX002 (ip), vehicle: Klucel (hydroxypropylcellulose) (HPC) 97 % of control

COc1ccc(NC(=O)Nc2cccc(C(=O)O)c2)c(OC)c1
inactive: [22] 101 % of control | [23] 104 % of control | dose: 400.0 mg/kg/injection, schedule: Q04DX002 (ip), vehicle: Klucel (hydroxypropylcellulose) (HPC) 97 % of control

C/C=C\c1ccc(OC(=O)Nc2ccc(Cl)cc2)c(OC)c1
inactive: [5] 100 % of control | [6] 100 % of control | [7] 96 % of control
